Assay results as given in patent publication US20080287915A1, “Tissue engineering system with scleral lens” (Boston Foundation for Sight, priority 2007, published 2008).
Where two headings read alike, the source gives them in different places.

Key:
[1] = system: corneal neovascularization; experiment: AVASTIN in the scleral lens drug delivery system to treat corneal neovascularization; format: in vivo
Description: This study using AVASTIN® off-label, topically, to treat corneal neovascularization was repeated using the scleral lens drug delivery system. […] This therapeutic effect was achieved without BAK. Instead, the expanded pre-corneal tear film of the scleral lens drug delivery system provided adequate bioavailability of the drug without exposing the cornea to BAK.

[2] = system: corneal neovascularization; settings: solution of 1% AVASTIN and 0.01% BAK, one drop, four times per day for at least thirty days, topical; cited from earlier work

bevacizumab [AVASTIN®]
therapeutic effect on corneal neovascularization ([1]; one drop of 1% AVASTIN added to expanded pre-corneal tear film of artificial tears in a scleral lens twice per day, without BAK): achieved a therapeutic effect by thirty days with continued benefit over the subsequent sixty days | regression of corneal neovascularization (clinical photos, FIG. 5) ([1]; scleral lens drug delivery system): regression of corneal neovascularization | therapeutic effect on corneal neovascularization [2]: Therapeutic effect was reported
